This is an account of results in patent publication US11332477B2, “Nitrogen containing heterocycle substituted benzoxazine oxazolidinone compound and preparation method and use thereof” (INSTITUTE OF MATERIA MEDICA, CHINESE ACADEMY OF MEDICAL …, priority 2017, dated 2022).

In brackets after ≈: the same amount, converted by molar mass.

Series [1] relates to Mycobacterium tuberculosis H37Rv. Put plainly: Anti-tuberculosis activity test in vitro (Microplate Alamar Blue Assay, MABA). The series is classed as cell-based. The following applies: M. tuberculosis H37Rv, MABA, 7H9 medium, method says MIC90 was calculated, read-out: MIC.
The test system of the next series is Vero cells. The series is described as follows: Cytotoxicity test (MTT). The following applies: Chlorocebus sabaeus; Vero cells, MTT, 48 hours of incubation, highest concentration 64 μg/mL; read-out: IC50. The series is classed as cell-based.
Series [2] has as its system mitochondrial protein synthesis. The series is described as follows: Activity of inhibiting mitochondrial protein synthesis. The series is classed as biochemical. The following applies: mitochondrial protein synthesis inhibition, Table 3. As for the experimental part: The experimental steps were carried out according to the literature (Antimicrobial Agents and Chemotherapy, 2006, 50 (6), 2042-2049).

The term MIC denotes the least concentration at which growth counts as inhibited. The IC50 is the concentration that gives 50% inhibition. As usually defined, the melting point is the temperature of the solid-liquid transition. In the case of `O=C(NC[C@@H]1OC(=O)N2c3cc(F)c(N4CCSCC4)cc3OC[C@@H]12)c1ccncc1` [Compound 10, N-(((3S,3aS)-8-Fluoro-1-oxo-7-thiomorpholino-3a,4-dihydro-1H,3H-benzo[b]oxazolo[3,4-d][1,4]oxazin-3-yl)methyl)isonicotinamide], the melting point was in the range of 135 to 137 °C. The MIC in series [1] is 0.16 µg/mL (≈ 0.36 µM). Also, the IC50 in the series with Vero cells was > 64 µg/mL. The IC50 in series [2] is >100 µg/mL.

`O=C1O[C@H](CNc2ccon2)[C@H]2COc3cc(N4CCSCC4)c(F)cc3N12` [Compound 31, (3R,3aR)-8-Fluoro-3-((isoxazol-3-ylamino)methyl)-7-thiomorpholino-3a,4-dihydro-1H, 3H-benzo[b]oxazolo[3,4-d][1,4]oxazin-1-one]: the melting point fell in the range of 149 to 150 °C. For the same compound, the MIC in series [1] is 0.123 µg/mL (≈ 0.303 µM). Also, in the series on Vero cells, the IC50 was > 64 µg/mL. For the same compound, the IC50 in series [2] is >100 µg/mL.

For the compound `COC(=O)NC[C@@H]1OC(=O)N2c3cc(F)c(N4CCSCC4)cc3OC[C@@H]12` [Compound 8, Methyl (((3S,3aS)-8-Fluoro-1-oxo-7-thiomorpholino-3a,4-dihydro-1H,3H-benzo[b]oxazolo[3,4-d][1,4]oxazin-3-yl)methyl)carbamate], the melting point lay in the range of 155 to 156 °C. Also, the MIC in series [1] is 0.031 µg/mL (≈ 0.078 µM). Further, the IC50 with Vero cells was > 64 µg/mL. The IC50 in series [2] is >100 µg/mL.

In turn, `CC(C)C(=O)NC[C@@H]1OC(=O)N2c3cc(F)c(N4CCSCC4)cc3OC[C@@H]12` [Compound 5, N-(((3S,3aS)-8-Fluoro-1-oxo-7-thiomorpholino-3a,4-dihydro-1H,3H-benzo[b]oxazolo[3,4-d][1,4]oxazin-3-yl)methyl)isobutyramide] yielded a melting point of 193 to 195 °C. Besides, the MIC in series [1] is 0.095 µg/mL (≈ 0.232 µM). Besides, the concentration for half-maximal inhibition (IC50) with Vero cells was > 64 µg/mL. Moreover, the IC50 in series [2] was >100 µg/mL.

Take `NC[C@@H]1OC(=O)N2c3cc(F)c(N4CCSCC4)cc3OC[C@@H]12` [Compound 1, (3S,3aS)-3-(Aminomethyl)-8-fluoro-7-thiomorpholino-3a, 4-dihydro-1H,3H-benzo[b]ox azolo[3,4-d][1,4]oxazin-1-one]: the melting point lay in the range of 155 to 157 °C. Also, the minimal inhibitory concentration (MIC) in series [1] was 0.029 µg/mL (≈ 0.0854 µM). The IC50 in the series with Vero cells stood at 36 µg/mL (≈ 106 µM). The IC50 in series [2] turned out to be 75.51 µg/mL (≈ 222 µM).

Regarding `O=C(NC[C@@H]1OC(=O)N2c3cc(F)c(N4CCSCC4)cc3OC[C@@H]12)c1cnccn1` [Compound 11, N-(((3S,3aS)-8-Fluoro-1-oxo-7-thiomorpholino-3a,4-dihydro-1H,3H-benzo[b]oxazolo[3,4-d][1,4]oxazin-3-yl)methyl)pyrazine-2-carboxamide], the melting point was 212 to 214 °C. Besides, the MIC in series [1] is 0.115 µg/mL (≈ 0.258 µM). Besides, the 50% inhibitory concentration (IC50) in the series with Vero cells was determined as 40.7 µg/mL (≈ 91.3 µM). Also, the IC50 in series [2] is >100 µg/mL.
